{"source": "paper PMC7997574", "about": "“Lead Optimization of Benzoxazolone Carboxamides as Orally Bioavailable and CNS Penetrant Acid Ceramidase Inhibitors” (Journal of Medicinal Chemistry, 2020)", "key": {"[1]": {"experiment": "Aqueous kinetic solubility assay", "type": "physicochemical", "details": "PBS, pH 7.4", "in_short": "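Kinetic solubility from 10 mM MeCN stock spiked into PBS pH 7.4 at 250 μM target, shaken 1 h at 25 °C, then centrifuged. Dissolved compound in supernatant quantified by UPLC/MS with UV at 215 nm; mean of ≥2 experiments.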"}, "[2]": {"molecular_target": "T1, AC (Homo sapiens, UniProt Q13510)", "T1 sequence (Q13510 22-395)": "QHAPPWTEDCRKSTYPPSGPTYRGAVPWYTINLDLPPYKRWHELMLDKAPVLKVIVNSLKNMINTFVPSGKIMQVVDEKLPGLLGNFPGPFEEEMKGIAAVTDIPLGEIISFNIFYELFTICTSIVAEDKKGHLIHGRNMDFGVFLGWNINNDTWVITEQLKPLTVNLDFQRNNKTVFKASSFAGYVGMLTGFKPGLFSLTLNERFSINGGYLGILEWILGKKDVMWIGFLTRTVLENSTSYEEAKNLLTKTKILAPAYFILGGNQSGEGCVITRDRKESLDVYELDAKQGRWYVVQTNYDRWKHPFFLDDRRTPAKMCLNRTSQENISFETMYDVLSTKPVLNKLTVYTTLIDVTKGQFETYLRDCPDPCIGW", "experiment": "Fluorogenic hAC assay on hAC-enriched lysate of HEK293 cells", "type": "biochemical", "parameters": "expressed in transfected cells", "details": "hAC expressed in HEK-293 cells; read-out: hAC IC50 (μM)±SD", "in_short": "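Lysosome-enriched lysate (2 μg protein) from HEK293 cells stably expressing hAC, in 25 mM NaOAc pH 4.5. Pre-incubated 10 min with compound, then incubated 3 h at 37 °C with fluorogenic substrate Rbm14–12 (5 μM final, ~KM). Fluorescence (355/460 nm) read after NaIO4 development; IC50 by nonlinear regression, mean of ≥3 experiments.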"}, "[3]": {"molecular_target": "T1, AC", "experiment": "EC50 determination in primary fibroblast cells from Krabbe's disease patients", "type": "cell-based", "parameters": "expressed in transfected cells", "protocol": "Cells were plated in a 6-well plate. After 24 h, cells were treated with 22m at different concentrations for 2 h. Next, cells were washed with PBS, and cell pellets were washed, collected, and stored at −80 °C. Finally, cell pellets were lysed, and hAC activity in cell lysates was analyzed using the same biochemical fluorogenic assay as described for compound IC50 determination. Using this methodology, EC50 was determined to be 0.41 ± 0.1 μM. The EC50 value is a mean of two independent experiments, each performed in two technical replicates."}}, "data": [{"smiles": "CC(C)CNC(=O)n1c(=O)oc2cc(C3CCN(C)CC3)ccc21", "note": "[22m, N-Isobutyl-6-(1-methyl-4-piperidyl)-2-oxo-1,3-benzoxazole-3-carboxamide]", "values": [{"measurement": "solubility at 1 h", "setting": "[1]", "value": 240, "unit": "µM"}, {"measurement": "IC50", "setting": "[2]", "value": "0.166 ± 0.089", "unit": "µM"}, {"measurement": "EC50", "setting": "[3]; primary fibroblast cells from Krabbe's disease patients, 2 h incubation", "value": "410 ± 100", "unit": "nM"}, {"measurement": "EC50", "setting": "[3]; primary fibroblast cells of Krabbe's patients, Figure S1", "value": "400 ± 100", "unit": "nM"}]}]}
